The text below walks through data of patent publication US11802113B2, “Substituted pyrazole compounds, compositions containing same, and use thereof” (Shenzhen TargetRx, Inc., priority 2019, dated 2023).

Molecules are shown by their SMILES.

A short description of data set [1]: Metabolic stability evaluation, human liver microsome. The format is in vitro ADME. The settings on record: liver microsomes, pH 7.4, human liver microsome 0.5 mg/mL, compound 1 μM, NADPH, 37° C.; for microsomal CLint at 1 μM: read-out: HLM CL; for half-life at 1 μM: read-out: HLM T1/2. The procedure:
(§1) (4) Metabolic Stability Evaluation
(§2) Microsome experiment: human liver microsome: 0.5 mg/mL, Xenotech; rat liver microsome: 0.5 mg/mL, Xenotech; coenzyme (NADPH/NADH): 1 mM, Sigma Life Science; magnesium chloride: 5 mM, 100 mM phosphate buffer (pH 7.4).
(§3) Preparation of stock solution: a certain amount of the example compound powder and control compound powder were accurately weighed, and respectively dissolved to 5 mM with DMSO.
(§4) Preparation of phosphate buffer (100 mM, pH7.4): 150 mL of 0.5M potassium dihydrogen phosphate and 700 mL of 0.5M dipotassium hydrogen phosphate prepared beforehand were mixed, with pH of the mixture adjusted to 7.4 with 0.5M dipotassium hydrogen phosphate solution. Before use, the mixture was diluted by 5 folds with ultrapure water and magnesium chloride was added to obtain the phosphate buffer (100 mM), which contains 100 mM potassium phosphate, 3.3 mM magnesium chloride, and has pH 7.4.
(§5) NADPH regeneration system solution (containing 6.5 mM NADP, 16.5 mM G-6-P, 3 U/mL G-6-P D, 3.3 mM magnesium chloride) was prepared, and placed on wet ice before use.
(§6) Preparation of stop solution: a solution of 50 ng/mL propranolol hydrochloride and 200 ng/mL tolbutamide (internal standard) in acetonitrile. 25057.5 μL of phosphate buffer (pH 7.4) was taken into a 50 mL centrifuge tube, added with 812.5 μL of human liver microsome, and mixed well to obtain a liver microsome diluent with a protein concentration of 0.625 mg/mL. 25057.5 μL of phosphate buffer (pH 7.4) was taken into a 50 mL centrifuge tube, added with 812.5 μL of SD rat liver microsome, and mixed well to obtain a liver microsome diluent with a protein concentration of 0.625 mg/mL.
(§7) Incubation of the samples: the stock solutions of the corresponding compounds were respectively diluted to 0.25 mM with an aqueous solution containing 70% acetonitrile to obtain working solutions for later use. 398 μL of human liver microsome and rat liver microsome diluents were respectively taken and added to a 96-well incubation plate (N=2), added with 2 μL of 0.25 mM working solution respectively, and mixed well.
Determination of metabolic stability: 300 μL of pre-cooled stop solution was added to each well of a 96-well deep-well plate, and the plate was placed on ice as a stop plate. The 96-well incubation plate and the NADPH regeneration system were placed in a 37° C. water bath, shaken at 100 rpm, and pre-incubated for 5 minutes. 80 μL of incubation solution was taken out of each well of the incubation plate and added to the stop plate, mixed well, and supplemented with 20 μL of NADPH regeneration system solution to obtain the 0 min sample. Then 80 μL of NADPH regeneration system solution was added to each well of the incubation plate to initiate the reaction and start timing. The reaction concentration of the corresponding compound was 1 μM, and the protein concentration was 0.5 mg/mL. At 10, 30, and 90 minutes of reaction, 100 μL of the reaction solution was taken and added to the stop plate, and vortexed for 3 minutes to stop the reaction. The stop plate was centrifuged at 5000×g for 10 min at 4° C. 100 μL of supernatant was taken to a 96-well plate pre-added with 100 μL of distilled water, mixed well, and subjected to sample analysis by LC-MS/MS.
Data analysis: the peak areas of the corresponding compound and internal standard were detected through the LC-MS/MS system, and the ratio of the peak area of the compound to the internal standard was calculated. The natural logarithm of the remaining percentage of the compound was plotted against time to measure the slope and calculate t1/2 and CLint according to the following equations, where V/M is equal to 1/protein concentration.
The compounds of the present invention and the corresponding non-deuterated compounds were simultaneously tested for comparison and evaluated for the metabolic stability in human and rat liver microsomes. The non-deuterated compound Darolutamide was used as the control.

Data set [2] in a line: Metabolic stability evaluation, rat liver microsome. The settings on record: SD, liver microsomes, pH 7.4, rat liver microsome 0.5 mg/mL, compound 1 μM, NADPH, 37° C.; for microsomal CLint at 1 μM: read-out: RLM CL; for half-life at 1 μM: read-out: RLM T1/2. The format is in vitro ADME. The procedure: as §1, §2, §3, §4, §5, §6, §7
Determination of metabolic stability: 300 μL of pre-cooled stop solution was added to each well of a 96-well deep-well plate, and the plate was placed on ice as a stop plate. […]
Data analysis: the peak areas of the corresponding compound and internal standard were detected through the LC-MS/MS system, and the ratio of the peak area of the compound to the internal standard was calculated. […]
The compounds of the present invention and the corresponding non-deuterated compounds were simultaneously tested for comparison and evaluated for the metabolic stability in human and rat liver microsomes. […]

For the molecule `CC(O)c1cc(C(=O)N[C@@H](C)Cn2ccc(-c3ccc(C#N)c(Cl)c3)n2)[nH]n1` (stereo partly drawn) [Darolutamide, N—((S)-1-(3-(3-chloro-4-cyanophenyl)-1H-pyrazol-1-yl)-prop-2-yl)-5-(1-hydroxyethyl)-1H-pyrazole-3-carboxamide, reference compound], in data set [1], the microsomal CLint at 1 μM turned out to be 8.5 µL/min/mg and the half-life at 1 μM is 2.72 h. Further, in data set [2], the microsomal CLint at 1 μM was 12.2 µL/min/mg and the half-life at 1 μM was found to be 1.9 h.

As for `[2H]C(C)(O)c1cc(C(=O)N[C@@H](C)Cn2ccc(-c3ccc(C#N)c(Cl)c3)n2)n[nH]1` (stereo partly drawn) [Example 1, N—((S)-1-(3-(3-chloro-4-cyanophenyl)-1H-pyrazol-1-yl)prop-2-yl)-5-(1-hydroxylethyl-1-d)-1H-pyrazole-3-carboxamide], in data set [1], the microsomal CLint at 1 μM amounted to 6.2 µL/min/mg and the half-life at 1 μM worked out at 3.7 h.

On to `[2H]C([2H])([2H])C(O)c1cc(C(=O)N[C@@H](C)Cn2ccc(-c3ccc(C#N)c(Cl)c3)n2)n[nH]1` (stereo partly drawn) [Example 2, N—((S)-1-(3-(3-chloro-4-cyanophenyl)-1H-pyrazol-1-yl)prop-2-yl)-5-(1-hydroxylethyl-2,2,2-d3)-1H-pyrazole-3-carboxamide], for which, in data set [1], the microsomal CLint at 1 μM came out at 9.1 µL/min/mg and the half-life at 1 μM was 2.55 h.

As to `[2H]C([2H])([2H])C([2H])(O)c1cc(C(=O)N[C@@H](C)Cn2ccc(-c3ccc(C#N)c(Cl)c3)n2)n[nH]1` (stereo partly drawn) [Example 3, N—((S)-1-(3-(3-chloro-4-cyanophenyl)-1H-pyrazol-1-yl)prop-2-yl)-5-(1-hydroxylethyl-1,2,2,2-d4)-1H-pyrazole-3-carboxamide], in data set [1], the microsomal CLint at 1 μM turned out to be 4 µL/min/mg and the half-life at 1 μM came out at 5.83 h.

Regarding `[2H]C([2H])([C@H](C)NC(=O)c1cc(C(C)O)[nH]n1)n1ccc(-c2ccc(C#N)c(Cl)c2)n1` (stereo partly drawn) [Example 4, N—((S)-1-(3-(3-chloro-4-cyanophenyl)-1H-pyrazol-1-yl)prop-2-yl-1,1-d2)-5-(1-hydroxyethyl)-1H-pyrazole-3-carboxamide], in data set [1], the microsomal CLint at 1 μM was found to be 8.5 µL/min/mg and the half-life at 1 μM came out at 2.7 h.

Take `[2H]C(C)(O)c1cc(C(=O)N[C@@H](C)C([2H])([2H])n2ccc(-c3ccc(C#N)c(Cl)c3)n2)n[nH]1` (stereo partly drawn) [Example 5, N—((S)-1-(3-(3-chloro-4-cyanophenyl)-1H-pyrazol-1-yl)prop-2-yl-1,1-d2)-5-(1-hydroxyethyl-1-d)-1H-pyrazole-3-carboxamide]: in data set [1], the microsomal CLint at 1 μM is 4.3 µL/min/mg and the half-life at 1 μM was found to be 5.36 h.

For the molecule `[2H]C([2H])([2H])C(O)c1cc(C(=O)N[C@@H](C)C([2H])([2H])n2ccc(-c3ccc(C#N)c(Cl)c3)n2)n[nH]1` (stereo partly drawn) [Example 6, N—((S)-1-(3-(3-chloro-4-cyanophenyl)-1H-pyrazol-1-yl)prop-2-yl-1,1-d2)-5-(1-hydroxyethyl-2,2,2-d3)-1H-pyrazole-3-carboxamide], in data set [1], the microsomal CLint at 1 μM turned out to be 6.4 µL/min/mg and the half-life at 1 μM stood at 3.62 h.

As to `[2H]C([2H])([C@H](C)NC(=O)c1cc(C([2H])(O)C([2H])([2H])[2H])[nH]n1)n1ccc(-c2ccc(C#N)c(Cl)c2)n1` (stereo partly drawn) [Example 7, N—((S)-1-(3-(3-chloro-4-cyanophenyl)-1H-pyrazol-1-yl)prop-2-yl-1,1-d2)-5-(1-hydroxyethyl-1,2,2,2-d4)-1H-pyrazole-3-carboxamide], in data set [1], the microsomal CLint at 1 μM is 6.9 µL/min/mg and the half-life at 1 μM was 3.36 h. Moreover, in data set [2], the microsomal CLint at 1 μM turned out to be 7.1 µL/min/mg and the half-life at 1 μM is 3.25 h.

With `[2H][C@](C)(Cn1ccc(-c2ccc(C#N)c(Cl)c2)n1)NC(=O)c1cc(C(C)O)[nH]n1` (stereo partly drawn) [Example 8, N—((S)-1-(3-(3-chloro-4-cyanophenyl)-1H-pyrazol-1-yl)prop-2-yl-2-d)-5-(1-hydroxyethyl)-1H-pyrazole-3-carboxamide], in data set [1], the microsomal CLint at 1 μM stood at 7.3 µL/min/mg and the half-life at 1 μM amounted to 3.17 h.

With `[2H]C([2H])([2H])[C@H](NC(=O)c1cc(C(C)O)[nH]n1)C([2H])([2H])n1ccc(-c2ccc(C#N)c(Cl)c2)n1` (stereo partly drawn) [Example 9, N—((S)-1-(3-(3-chloro-4-cyanophenyl)-1H-pyrazol-1-yl)prop-2-yl-1,1,3,3,3-d5)-5-(1-hydroxyethyl)-1H-pyrazole-3-carboxamide], in data set [1], the microsomal CLint at 1 μM is 8.1 µL/min/mg and the half-life at 1 μM worked out at 2.85 h.

Consider `[2H]C(C)(O)c1cc(C(=O)N[C@@H](C([2H])([2H])[2H])C([2H])([2H])n2ccc(-c3ccc(C#N)c(Cl)c3)n2)n[nH]1` (stereo partly drawn) [Example 10, N—((S)-1-(3-(3-chloro-4-cyanophenyl)-1H-pyrazol-1-yl)prop-2-yl-1,1,3,3,3-d5)-5-(1-hydroxyethyl-1-d)-1H-pyrazole-3-carboxamide], for which, in data set [1], the microsomal CLint at 1 μM amounted to 4.4 µL/min/mg and the half-life at 1 μM was 5.29 h.
